Assay results reported in patent US5229362A, “Antibiotic A10255 complex and factors, and process and production therefor” (Eli Lilly and Company, priority 1991, dated 1993).

System: rumen-cannulated wethers
Assay: Rumen lactic acidosis in rumen-cannulated wethers switched abruptly to concentrate
Type: in vivo, sheep
Conditions: 60 mg/d; Day 6, 12-hr sample

CC[C@@]1([C@@H]2O[C@@H]([C@H]3O[C@@](O)(CO)[C@H](C)C[C@@H]3C)C[C@@H]2C)CC[C@H]([C@]2(C)CC[C@]3(C[C@H](O)[C@@H](C)[C@@H]([C@@H](C)[C@@H](OC)[C@H](C)C(=O)O)O3)O2)O1 [Monensin]
Rumen pH: 5.02
Ruminal TVFA: 43.6 mM/l
